Patent publication US20010053797A1 (priority 1998, published 2001)
“Also recorded” adds a separate entry of the source. Where two headings read alike, the source gives them in different places.

Key:
[1] = tested on: murine cortical cell cultures (neurons), NMDA receptor; assay: NMDA neurotoxicity in murine cortical cell cultures, medium LDH; type: cell-based, Swiss Webster mice; conditions: for LDH release: scaled to 300 μM NMDA (=100); for effect on potentiation of NMDA neurotoxicity by mercaptoethanol: NMDA plus 1 mM mercaptoethanol plus equimolar compound; for effect on NMDA neurotoxicity (neuronal death, medium LDH): compound added with low micromolar NMDA, 20-25 h; for effect on potentiation of NMDA neurotoxicity by GSH: NMDA plus GSH plus compound
Method: Cultures were incubated in 5% CO2 at 37° C.
Experiments were conducted at 13-15 days in vitro.

[2] = tested on: cortical neurons and glia; assay: Chemical hypoxia (azide) and glucose deprivation in cortical cell cultures, medium LDH; type: cell-based, Swiss Webster mice; conditions: for effect on azide neurotoxicity in glucose-free buffer (neuronal death): 3 mM azide 30 min with compound, LDH 21-25 h later; for effect on potentiation of azide toxicity/glucose deprivation by GSH: 3 mM azide plus 100 μM GSH plus compound; for effect on potentiation of azide toxicity/glucose deprivation by GSH / effect on potentiation of azide toxicity by mercaptoethanol: 30 min; for effect on potentiation of azide toxicity by mercaptoethanol: 3 mM azide plus 100 μM mercaptoethanol plus compound
Method: Primary cultures containing both cortical neurons and glia were prepared from gravid Swiss Webster mice as previously described. (Regan , R. F. and Choi, D. W., The effect of NMDA, AMPA/kainate, and calcium channel antagonists on traumatic cortical neuronal injury in culture, Brain Res, 633: 236-242, 1994). Plating medium consisted of Eagle's minimal essential medium (MEM), 5% equine serum, 5% fetal bovine serum, 2 mM glutamine, and 23 mM glucose. Cultures were incubated in 5% CO2 at 37° C. Two-thirds of the culture medium was exchanged twice weekly with MEM containing 10% equine serum, 2 mM glutamine, and 23 mM glucose. Glial cell division was inhibited at 4-7 days in vitro with 10^−5 M cytosine arabinoside.
Chemical hypoxia was induced with 3 mM azide, which unlike cyanide is not volatile and has little effect on copper-zinc and manganese superoxide dismutases at low millimolar concentrations. (Misra, H. P. and Fridovich, I., Inhibition of superoxide dismutases by azide, Arch Biochem Biophys 189: 317-322, 1978). Experiments were conducted at 13-16 days in vitro in a glucose-free buffer containing 116 mM NaCl, 5.4 mM KCl, 1.8 mM CaCl2, 1 mM NaH2PO4, 26.2 mM NaHCO3, 0.8 mM MgSO4, and amino acids (MEM amino acids, Sigma Chemical Co., St. Louis, Mo., U.S.A.). After incubation for 30-90 min at 37° C. in 5% CO2, cultures were washed into MEM containing 10 mM glucose and were returned to the incubator.
Cell death was estimated 21-25 h after azide exposure by inspection under phase-contrast microscopy, and was quantified by assaying lactate dehydrogenase (LDH) activity in the medium, as previously described. (Regan, R. F. and Panter, S. S., Traumatic neuronal injury in cortical cell culture is attenuated by 21-aminosteroids, Brain Res, 682: 144-150, 1995). Medium LDH in this culture system is an accurate marker of neuronal death that correlates well with cell counts. (Koh, J. Y. and Choi, D. W., Vulnerability of cultured cortical neurons to damage by excitotoxins: Differential susceptibility of neurons containing NADPH-diaphorase, J Neurosci 8: 2153-2163, 1988). […] (Koh, J. Y. and Choi, D. W., 1988). The LDH activity in the medium of sister cultures exposed to sham wash alone was subtracted from all values to obtain the LDH signal associated specifically with neurotoxin exposure.
Data were analyzed by one-way analysis of variance. Differences between groups and a single mean were assessed with the Dunnett multiple comparisons test; when groups were compared to more than one mean, the Tukey-Kramer post hoc test was used.

[3] = tested on: cultured cerebellar granule cells; conditions: cited from earlier work
native NMDA receptor = biological target: T1, native NMDA receptor (Rattus norvegicus, UniProt P35439); conditions: cited from earlier work
T1 construct: host or cells: cultured forebrain, cortical or retinal neurons (endogenous receptor)

[4] = tested on: NR1-NR2B, -NR2C, or -NR2D receptors; conditions: millimolar concentrations of GSH; cited from earlier work
[5] = tested on: murine cortical cell cultures (neurons), AMPA and kainate receptors; conditions: listed as reduced glutathione
Method: (§1) After halothane anesthesia and cervical dislocation, cortical hemispheres were removed and incubated in 0.075% (wt/vol) acetylated trypsin (Sigma T-6763) for 1 h at 37° C. Tissue was dissociated by multiple passages through a narrow bore (flamed) Pasteur pipette, and the cell suspension was plated on confluent glial cultures at a density of 2.25-2.5 hemispheres per 24 well plate.
(§2) Experiments were conducted at 13-15 days in vitro. Cultures were exposed to excitatory amino acids in serum-free MEM containing 10 mM glucose.
Since astrocytes are not vulnerable to excitotoxic injury in this culture system (Choi D. W., Maulucci-Gedde M. and Kriegstein A. R. Glutamate neurotoxicity in cortical cell culture. J Neurosci 7: 357-368, 1987), the contribution of astrocytic LDH to the LDH signal is negligible.
Differences between groups were assessed with the Tukey-Kramer or Dunnett post hoc tests.

[6] = tested on: NMDA receptor-mediated neurotoxicity; conditions: cited from earlier work
[7] = tested on: murine cortical cell cultures; conditions: millimolar concentrations, 20-25 h, 0 μM NMDA
Method: as §1, §2

cortical cell culture = conditions: low micromolar concentrations; cited from earlier work
GSH binding sites = conditions: cited from earlier work

CN[C@H](CC(=O)O)C(=O)O [NMDA, N-methyl-D-aspartate]
neuronal death by NMDA ([1]; 24 μM NMDA): widespread neuronal death | neuronal death by NMDA ([1]; 300 μM NMDA, sister cultures (=100)): essentially complete neuronal death without injuring glia

O[C@H](CS)[C@H](O)CS (racemic) [dithiothreitol]
effect on azide neurotoxicity in glucose-free buffer (neuronal death) [2]: concentration-toxicity profile that was similar to GSH

N[C@@H](CCC(=O)N[C@@H](CS)C(=O)NCC(=O)O)C(=O)O [GSH, glutathione]
basal 45Ca2+ influx [3]: did not alter | glutamate and NMDA-induced calcium influx [3]: increased | effect on native NMDA receptor responses (native NMDA receptor): no effect | effect on responses to glutamate (whole cell currents) [4]: not | LDH release ([1]; 8 μM NMDA plus GSH): 61.09±3.83% | effect on neuronal death at high NMDA concentration ([1]; 24 μM NMDA): not altered | effect on potentiation of NMDA neurotoxicity by mercaptoethanol [1]: did not further increase neuronal death; also recorded: tended to inhibit the effect of mercaptoethanol; also recorded: did not further enhance NMDA neurotoxicity | effect on potentiation of NMDA neurotoxicity by mercaptoethanol ([1]; listed as reduced glutathione): did not further increase NMDA-induced neuronal death | effect on NMDA neurotoxicity (neuronal death, medium LDH) [1]: selectively potentiates NMDA neurotoxicity; also recorded: markedly potentiated; also recorded: specifically potentiated NMDA neurotoxicity; also recorded: selectively potentiate | effect on NMDA neurotoxicity (neuronal death, medium LDH) ([1]; listed as glutathione): marked potentiation | effect on NMDA neurotoxicity (neuronal death, medium LDH) ([1]; listed as reduced glutathione): markedly enhanced; also recorded: markedly enhance the vulnerability | effect on neurotoxicity of kainic acid [5]: unaffected | effect on NMDA neurotoxicity [6]: attenuated NMDA neurotoxicity

C[C@]12N[C@H](Cc3ccccc31)c1ccccc12 [MK-801]
LDH release ([1]; 8 μM NMDA plus GSH plus MK-801): −1.24±1.58% | cell death due to 8 μM NMDA plus GSH ([1]; 8 μM NMDA plus GSH plus compound): completely blocked | effect on potentiation of azide toxicity/glucose deprivation by GSH [2]: blocked

oxidized glutathione [GSSG]
effect on native NMDA receptor responses (native NMDA receptor): inhibitory | toxicity of compound alone [7]: nontoxic | effect on potentiation of NMDA neurotoxicity by (sulfhydryl) reducing agents [1]: antagonized | effect on potentiation of NMDA neurotoxicity by mercaptoethanol [1]: completely blocked; also recorded: blocked the effect of mercaptoethanol | effect on potentiation of NMDA neurotoxicity by mercaptoethanol ([1]; listed as oxidized glutathione): blocked | effect on NMDA neurotoxicity (neuronal death, medium LDH) [1]: no significant effect; also recorded: did not attenuate NMDA neurotoxicity per se | effect on NMDA neurotoxicity [6]: attenuated NMDA neurotoxicity | effect on azide neurotoxicity in glucose-free buffer (neuronal death) [2]: ineffective; also recorded: not increased | effect on potentiation of azide toxicity/glucose deprivation by GSH [2]: most neurons have survived; also recorded: attenuates | effect on potentiation of azide toxicity by mercaptoethanol [2]: attenuates | effect on neuronal death induced by prolonged azide exposure ([2]; azide 60-90 min in the absence of GSH): no significant effect | neuroprotection against azide plus GSH or mercaptoethanol ([2]; compound at 1-3 mM): robust effect | neuroprotection against azide plus GSH or mercaptoethanol ([2]; equimolar compound (100 μM)): weak and somewhat variable neuroprotection

CCN(CC)c1ccc(N(CC)CC)c(N2CCN(CC(=O)[C@H]3[C@H](C)C[C@H]4[C@@H]5CCC6=CC(=O)C=C[C@]6(C)C5=CC[C@@]43C)CC2)n1.Cl [U74500A]
effect on hemoglobin toxicity (cortical cell culture): blocks hemoglobin toxicity | effect on potentiation of NMDA neurotoxicity by GSH [1]: GSH also potentiated injury in the presence

CCCCCCSC[C@H](NC(=O)CC[C@H](N)C(=O)O)C(=O)NCC(=O)O [SHG, S-hexylglutathione]
effect on potentiation of NMDA neurotoxicity by (sulfhydryl) reducing agents [1]: antagonized | effect on potentiation of NMDA neurotoxicity by mercaptoethanol [1]: blocked the effect of mercaptoethanol | effect on potentiation of NMDA neurotoxicity by mercaptoethanol ([1]; listed as S-hexylglutathione): completely blocked | effect on potentiation of NMDA neurotoxicity by GSH [1]: completely blocked | effect on potentiation of NMDA neurotoxicity by GSH ([1]; listed as S-hexylglutathione): completely blocked; also recorded: antagonized the effect of GSH | effect on NMDA neurotoxicity (neuronal death, medium LDH) [1]: no significant effect; also recorded: did not attenuate NMDA neurotoxicity per se | effect on NMDA neurotoxicity (neuronal death, medium LDH) ([1]; listed as S-hexylglutathione): inactive per se | effect on potentiation of NMDA neurotoxicity by (sulfhydryl) reducing agents ([1]; listed as S-hexylglutathione): blocked the potentiation | effect on glutathione binding (GSH binding sites; listed as S-hexylglutathione): displace glutathione binding; also recorded: selectively inhibited | effect on azide neurotoxicity in glucose-free buffer (neuronal death) [2]: ineffective | effect on azide neurotoxicity in glucose-free buffer (neuronal death) ([2]; listed as S-hexylglutathione): not increased | effect on potentiation of azide toxicity/glucose deprivation by GSH [2]: attenuates | effect on potentiation of azide toxicity by mercaptoethanol [2]: attenuates | neuroprotection against azide plus GSH or mercaptoethanol ([2]; compound at 1-3 mM): decreasing neuronal death moderately

NS(=O)(=O)c1cccc2c1c([N+](=O)[O-])cc1[nH]c(=O)c(=O)[nH]c12 [NBQX, 1,2,3,4-tetrahydro-6-nitro-2,3-dioxo-benzo[f]quinoxaline-7-sulfonamide]
effect on potentiation of azide toxicity/glucose deprivation by GSH [2]: not and no effect

N[C@@H](CS)C(=O)O [cysteine]
effect on glutathione binding (GSH binding sites): selectively inhibited

[N-]=[N+]=[N-] [azide]
toxicity of azide alone ([2]; 3 mM azide in glucose-free medium, 30 minutes): tolerated by most neurons

CSC[C@H](NC(=O)CC[C@H](N)C(=O)O)C(=O)NCC(=O)O [SMG, S-methylglutathione]
effect on potentiation of NMDA neurotoxicity by (sulfhydryl) reducing agents [1]: blocked the potentiation | effect on potentiation of NMDA neurotoxicity by GSH [1]: blocks the potentiation; also recorded: completely blocked; also recorded: antagonized the effect of GSH | effect on NMDA neurotoxicity (neuronal death, medium LDH) [1]: inactive per se | effect on glutathione binding (GSH binding sites): displace glutathione binding

N[C@@H](CCC(=O)O)C(=O)O [glutamate]
effect on glutathione binding (GSH binding sites): not

B1: catalase: catalase, added at a concentration sufficient to inhibit the neurotoxicity of the pro-oxidant hemoglobin (protein, UniProt P00432 2-527, looked up)
Catalase: ADNRDPASDQMKHWKEQRAAQKPDVLTTGGGNPVGDKLNSLTVGPRGPLLVQDVVFTDEMAHFDRERIPERVVHAKGAGAFGYFEVTHDITRYSKAKVFEHIGKRTPIAVRFSTVAGESGSADTVRDPRGFAVKFYTEDGNWDLVGNNTPIFFIRDALLFPSFIHSQKRNPQTHLKDPDMVWDFWSLRPESLHQVSFLFSDRGIPDGHRHMNGYGSHTFKLVNANGEAVYCKFHYKTDQGIKNLSVEDAARLAHEDPDYGLRDLFNAIATGNYPSWTLYIQVMTFSEAEIFPFNPFDLTKVWPHGDYPLIPVGKLVLNRNPVNYFAEVEQLAFDPSNMPPGIEPSPDKMLQGRLFAYPDTHRHRLGPNYLQIPVNCPYRARVANYQRDGPMCMMDNQGGAPNYYPNSFSAPEHQPSALEHRTHFSGDVQRFNSANDDNVTQVRTFYLKVLNEEQRKRLCENIAGHLKDAQLFIQKKAVKNFSDVHPEYGSRIQALLDKYNEEKPKNAVHTYVQHGSHLSAREKANL
effect on potentiation of NMDA neurotoxicity by GSH [1]: No effect was observed
